Consider 5 compounds from patent US6361773B1, “Antibodies produced against cytokine suppressive anti-inflammatory drug binding proteins” (SmithKline Beecham Corporation, priority 1993, dated 2002).

Read-outs that look alike come from different tables or passages of the source.

The test system of experiment [1] is IL-1 production in human monocytes. The experiment is described as follows: CSAIDs bioassay (IL-1 dependent EL-4/IL2 induction assay, LPS-stimulated human monocytes). Particulars: Monocyte. It is filed as cell-based. Here is the method:
The biological assay employed to evaluate CSAIDs activity was the IL-1 dependent EL-4/IL2 induction assay (Simon, P. L. et al., J. Immuno. Meth. 84: 85-94 (1985)). Briefly, Human monocytes were plated in 24-well plates in LPS-free RPMI 1640 media containing 1% human AB serum at a concentration of 10^6 per millilitre per well and allowed to adhere for 1 h at 37° C.; non-adherent cells were removed by gentle washing. Test compounds or media were added to the cells 0 or 1 h before the addition of bacterial lipopolysaccharide (E. coli 001:B4; Difco, Detroit) at 10 ng/ml. The cultures were then incubated at various intervals as indicated at 37° C. in a humidified 5% CO2 atmosphere. At the end of the incubation period, culture supernatants were collected. The residual adherent monocytes were lysed in a buffer containing 0.15M octyl-glucopyranoside, 25 mM Hepes, and 0.5 mM phenylmethylsulfonylfluoride in saline. Both supernatants and cell lysates were clarified by centrifugation and assayed for IL-1 activity.
IL-1 activity was measured by its ability to stimulate the secretion of IL-2 by EL-4 (ATCC TIB181) cells in the presence of A23187 ionophore. Serial dilutions of the samples were incubated with 10^5 EL-4 cells in the presence of 2×10^−7 M calcium ionophore A23187. After overnight incubation, 0.1 ml of a cell-free supernatant from each culture was taken and incubated with 10^4 IL-2-dependent […] (ATCC-T11B214) cells. Following an additional 20 hours of incubation, the cultures were pulsed with 1 μCi of tritiated thymidine for 4 h. The cells were then harvested onto glass-fibre filters and the radioactivity deterrnined by liquid scintillation counting.

Experiment [2] concerns the target T1, CSAID binding protein (CSBP) in THP.1 cytosol (Homo sapiens, UniProt Q16539).
T1 construct: endogenous in cells; host or cells: THP.1 (ATCC TIB 202), cytosolic fraction (100,000 x g supernatant)
Description: CSAID binding assay with 3H-Compound I and THP.1 cytosol.

Where [3] appears, read: Table II, read-out: IC50 in competitive CSAID binding assay.

T1 sequence (Q16539 whole entry): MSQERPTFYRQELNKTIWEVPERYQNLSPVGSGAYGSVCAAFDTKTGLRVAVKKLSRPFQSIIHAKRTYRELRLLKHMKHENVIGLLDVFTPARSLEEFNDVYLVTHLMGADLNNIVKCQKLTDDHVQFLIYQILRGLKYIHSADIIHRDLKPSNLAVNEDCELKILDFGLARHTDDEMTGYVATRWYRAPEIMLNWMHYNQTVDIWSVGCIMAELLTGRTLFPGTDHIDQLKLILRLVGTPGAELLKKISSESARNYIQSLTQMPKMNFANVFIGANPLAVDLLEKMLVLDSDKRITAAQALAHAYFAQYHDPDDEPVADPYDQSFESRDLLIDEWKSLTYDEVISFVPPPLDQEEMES

With `[N-]=[N+]=Nc1ccc(-c2nc(-c3cccc([125I])c3)c(-c3ccncc3)[nH]2)cc1` [Compound IV, 4-[2-(4-azidophenyl)-5-(3-^125Iodo-phenyl)-1H-imidazol-4-yl]pyridine], the IC50 was 3000 nM in experiment [1] (read-out: IC50 in a CSAIDs bioassay) and 500 to 800 nM in experiment [2] (read-out: IC50 in a competitive binding assay).

Regarding `CCc1nc(-c2ccc(OC)cc2)[nH]c1-c1ccncc1` [Compound VIII], the IC50 in experiment [1] (read-out: IC50 in the bioassay) is greater than 5000 nM.

In the case of `N#Cc1ccc(-c2nc(-c3ccc(F)cc3)c(-c3ccnc4ccccc34)n2O)cc1` [Compound VII], the IC50 in experiment [1] (read-out: IC50 in the bioassay) amounted to 20 nM.

For `CC(Cc1ccc(O)c(O)c1)C(C)Cc1ccc(O)c(O)c1` (stereo not drawn) [NDGA], in experiment [2] (setting [3]), the concentration for half-maximal inhibition (IC50) worked out at 154000 nM.

As for `NC(=O)N1C(=O)/C(=C(\O)c2cccs2)c2cc(Cl)ccc21` [Tenidap], the IC50 in experiment [2] (setting [3]) amounted to 139000 nM.

A word on the IC50: it is the concentration that gives 50% inhibition.
